Measured values reported in patent publication US9957298B2, “Peptides as oxytocin agonists” (Hoffmann-La Roche Inc., priority 2014, dated 2018).
pEC50: −log10 of the molar value. Starred links: 1 amine or outer side, 2 acyl side, 3 side chain; linkers in the order of their positions; H or OH if unused. Positions of bridges follow the written chain, without caps; N, C: chain ends. Non-standard residues stand in square brackets, D forms with d. Residues, ends and D or L forms follow the SMILES beside them. Cha = N[C@@H](CC1CCCCC1)C(=O)O; Phg = N[C@H](C(=O)O)c1ccccc1; Suc = O=C(CCC(=O)[*:2])[*:1]; hLeu = CC(C)CC[C@H](N)C(=O)O; Nva = CCC[C@H](N)C(=O)O; Dap = NC[C@H](N)C(=O)O; Sar = CNCC(=O)O

Tests used:
Assay type in all cases: cell-based
[1] = molecular target: T1, human Oxytocin (OTR) receptor (Homo sapiens, UniProt P30559); test: Calcium flux assay (FLIPR), agonist mode, CHO cells expressing human oxytocin receptor; details: for pEC50: CHO cells, human OTR, calcium flux FLIPR, read-out: hOT EC50; for Emax: CHO, maximum response normalized to endogenous full agonist = 100%, read-out: hOT efficacy (%)
T1 construct: expressed in transfected cells
T1 sequence (P30559 1-389): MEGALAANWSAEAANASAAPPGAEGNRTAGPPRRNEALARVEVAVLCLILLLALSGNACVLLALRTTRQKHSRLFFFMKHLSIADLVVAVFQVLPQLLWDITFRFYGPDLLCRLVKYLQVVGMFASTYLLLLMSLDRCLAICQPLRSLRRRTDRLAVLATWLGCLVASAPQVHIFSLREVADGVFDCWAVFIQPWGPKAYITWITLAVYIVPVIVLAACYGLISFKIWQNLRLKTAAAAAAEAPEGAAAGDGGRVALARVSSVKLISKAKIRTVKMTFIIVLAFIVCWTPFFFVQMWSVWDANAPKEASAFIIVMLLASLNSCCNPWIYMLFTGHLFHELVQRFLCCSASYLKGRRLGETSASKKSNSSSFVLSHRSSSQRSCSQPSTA
Source text: (§1) Chines Hamster Ovary (CHO) cells were transfected with expression plasmids encoding either the human V1a, the human Oxytocin (OTR) or the human V2 receptor, the later in combination with the chimeric Gqs5 G protein to redirect the signal to Calcium flux. Stable cells were cloned by limiting dilution to yield monoclonal cell lines expressing either human V1a, human V2+Gqs5 or human OTR receptors and selected based on functional responses detected on a fluorometric imaging plate reader (FLIPR) detecting Calcium flux in the cell after receptor activation. The stable cell lines were grown in F-12 K Nutrient Mixture (Kaighns Modification), containing 10% foetal bovine serum (FBS), 1% penicillin-streptomycin, 1% L-[…], 200 ug/ml Geneticin at 37° C. in a 10% CO2 incubator at 95% humidity.
(§2) On the afternoon before the assay, cells were plated at a density of 50,000 cells/well into black 96 well plates with clear bottoms to allow cell inspection and fluorescence measurements from the bottom of each well. The density of cells was sufficient to yield a confluent monolayer the next day. Hanks balanced salt solution, without phenol red, containing 20 mM HEPES (pH 7.3) and 2.5 mM probenecid (assay buffer) was prepared fresh for each experiment. Compound dilutions were made using a Beckman Biomek 2000 laboratory automation workstation, in assay buffer containing 1% DMSO. The dye-loading buffer consisted of a final concentration of 2 μM Fluo-4-AM (dissolved in DMSO and pluronic acid) in assay buffer. The existing culture media was removed from the wells and 100 μl of the dye-loading buffer was added to each well and incubated for approximately 60 min at 37° C. in a 5% CO2 incubator at 95% humidity. Once dye-loaded, the cells were washed thoroughly on an Embla cell washer with the assay buffer to remove any unincorporated dye. Exactly 100 μl assay buffer was left in each well.
(§3) Each 96 well plate containing dye-loaded cells was placed into the FLIPR machine and the laser intensity set to a suitable level to detect low basal fluorescence. To test compounds as agonists, 25 μl diluted compound was added to the plate 10 seconds into the fluorescent measurements and fluorescent response was recorded for 5 minutes. The fluorescence data was normalized to the endogenous full agonist dose-response set at 100% for the maximum response and 0% for the minimum. Each agonist concentration-response curve was constructed using a four parameter logistic equation with Microsoft Excel XLFit as follows: Y=Minimum+((Maximum−Minimum)/(1+10^(LogEC50-X)nH)), where y is the % normalized fluorescence, minimum is the minimum y, maximum is the maximum y, logEC50 is the log10 concentration which produces 50% of the maximum induced fluorescence, x is the log10 of the concentration of the agonist compound and H is the slope of the curve (the Hill Coefficient). The maximum value gives the efficacy of the agonist test compound in percentage. The concentration of agonist that produced a half-maximal response is represented by the EC50 value, the logarithm of which yielded the pEC50 value.

human V1a receptor = molecular target: T2, human V1a receptor (Homo sapiens, UniProt P37288); test: Calcium flux assay (FLIPR), agonist mode, CHO cells expressing human V1a receptor; details: read-out: hV1a EC50
T2 construct: expressed in transfected cells
Source text: as §1, §2, §3

human V2 receptor = molecular target: T3, human V2 receptor (Homo sapiens, UniProt P30518); test: Calcium flux assay (FLIPR), agonist mode, CHO cells expressing human V2 receptor + Gqs5; details: for pEC50: CHO cells, human V2 + chimeric Gqs5, calcium flux FLIPR, read-out: hV2 EC50; for hV2 efficacy (%) / Emax: maximum response normalized to endogenous full agonist = 100%; for Emax: CHO, read-out: hV2 efficacy (%)
T3 construct: expressed in transfected cells
Source text: as §1, §2, §3

T2 sequence (P37288 whole entry): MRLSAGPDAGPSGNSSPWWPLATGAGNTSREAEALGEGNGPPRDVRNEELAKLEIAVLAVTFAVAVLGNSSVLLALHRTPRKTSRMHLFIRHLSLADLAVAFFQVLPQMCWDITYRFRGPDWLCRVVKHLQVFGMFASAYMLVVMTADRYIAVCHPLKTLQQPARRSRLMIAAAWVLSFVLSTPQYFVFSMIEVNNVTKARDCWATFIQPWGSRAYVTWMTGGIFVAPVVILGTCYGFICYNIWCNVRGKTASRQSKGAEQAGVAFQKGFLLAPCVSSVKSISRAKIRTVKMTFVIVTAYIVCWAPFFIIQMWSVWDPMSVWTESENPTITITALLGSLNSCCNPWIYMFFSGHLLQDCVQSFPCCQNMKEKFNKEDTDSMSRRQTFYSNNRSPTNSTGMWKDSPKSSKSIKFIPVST
T3 sequence (P30518 whole entry): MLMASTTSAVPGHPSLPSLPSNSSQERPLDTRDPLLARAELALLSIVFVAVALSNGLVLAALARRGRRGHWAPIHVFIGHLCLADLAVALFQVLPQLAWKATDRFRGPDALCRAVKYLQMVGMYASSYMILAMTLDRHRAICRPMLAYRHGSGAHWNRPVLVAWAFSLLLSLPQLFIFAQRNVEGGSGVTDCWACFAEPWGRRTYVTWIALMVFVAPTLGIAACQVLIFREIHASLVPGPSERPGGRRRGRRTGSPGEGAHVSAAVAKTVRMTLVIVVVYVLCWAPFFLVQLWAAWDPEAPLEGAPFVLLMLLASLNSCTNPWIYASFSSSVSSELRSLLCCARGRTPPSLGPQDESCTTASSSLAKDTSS

| SMILES | pEC50 [1] | Emax [1] [%] | pEC50 (human V1a receptor) | pEC50 (human V2 receptor) | hV2 efficacy (%) (human V2 receptor) | Emax (human V2 receptor) [%] |
| --- | --- | --- | --- | --- | --- | --- |
| CCC[C@H](NC(=O)CN(C)C(=O)[C@@H]1CNC(=O)CCC(=O)N[C@@H](Cc2ccc(O)cc2)C(=O)N[C@@H]([C@@H](C)CC)C(=O)N[C@@H](CCC(N)=O)C(=O)N[C@@H](CC(N)=O)C(=O)N1)C(=O)NCC(N)=O [Example 27] (YIQN[Dap][Sar][Nva]G-NH2; linker N-5 via Suc) | 9.10 | 107 | < 4.57 | 6.55 | 114 | – |
| CC[C@H](C)[C@@H]1NC(=O)[C@H](Cc2ccc(O)cc2)NC(=O)CCC(=O)NC[C@@H](C(=O)N(C)CC(=O)N[C@@H](CCSC)C(=O)NCC(N)=O)NC(=O)[C@H](CC(N)=O)NC(=O)[C@H](CCC(N)=O)NC1=O [Example 26] (YIQN[Dap][Sar]MG-NH2; linker N-5 via Suc) | 9.30 | 107 | < 4.57 | 6.55 | 119 | – |
| CC[C@H](C)[C@@H]1NC(=O)[C@H](Cc2ccc(O)cc2)NC(=O)CCC(=O)NC[C@@H](C(=O)N(C)CC(=O)N[C@@H](CC(C)C)C(=O)NCC(N)=O)NC(=O)[C@H](CC(N)=O)NC(=O)[C@H](CCC(N)=O)NC1=O [Example 3] (YIQN[Dap][Sar]LG-NH2; linker N-5 via Suc) | 9.05 | 113 | < 4.57 | 6.21 | 130 | – |
| CC[C@H](C)[C@@H]1NC(=O)[C@H](Cc2ccc(O)cc2)NC(=O)CCC(=O)NC[C@@H](C(=O)N(C)CC(=O)N[C@@H](CC2CCCCC2)C(=O)NCC(N)=O)NC(=O)[C@H](CC(N)=O)NC(=O)[C@H](CCC(N)=O)NC1=O [Example 31] (YIQN[Dap][Sar][Cha]G-NH2; linker N-5 via Suc) | 9.30 | 107 | < 4.57 | 6.70 | 126 | – |
| CC[C@H](C)[C@@H]1NC(=O)[C@H](Cc2ccc(O)cc2)NC(=O)CCC(=O)NC[C@@H](C(=O)N2CCC[C@H]2C(=O)N[C@H](C(=O)NCC(N)=O)c2ccccc2)NC(=O)[C@H](CC(N)=O)NC(=O)[C@H](CCC(N)=O)NC1=O [Example 19] (YIQN[Dap]P[Phg]G-NH2; linker N-5 via Suc) | 9.40 | 114 | 6.33 | 7.23 | 114 | – |
| CC[C@H](C)[C@@H]1NC(=O)[C@H](Cc2ccc(O)cc2)NC(=O)CCC(=O)NC[C@@H](C(=O)N(C)CC(=O)N[C@@H](C(=O)NCC(N)=O)[C@H](C)O)NC(=O)[C@H](CC(N)=O)NC(=O)[C@H](CCC(N)=O)NC1=O [Example 29] (YIQN[Dap][Sar][dT]G-NH2; linker N-5 via Suc) | 9.22 | 109 | < 4.57 | 5.68 | – | 113 |
| CC[C@@H](C)[C@@H](NC(=O)CN(C)C(=O)[C@@H]1CNC(=O)CCC(=O)N[C@@H](Cc2ccc(O)cc2)C(=O)N[C@@H]([C@@H](C)CC)C(=O)N[C@@H](CCC(N)=O)C(=O)N[C@@H](CC(N)=O)C(=O)N1)C(=O)NCC(N)=O [Example 28] (YIQN[Dap][Sar][dI]G-NH2; linker N-5 via Suc) | 9.30 | 109 | < 4.57 | 5.86 | – | 119 |
| CC[C@H](C)[C@@H]1NC(=O)[C@H](Cc2ccc(O)cc2)NC(=O)CCC(=O)NC[C@@H](C(=O)N(C)CC(=O)N[C@H](C(=O)NCC(N)=O)C(C)C)NC(=O)[C@H](CC(N)=O)NC(=O)[C@H](CCC(N)=O)NC1=O [Example 5] (YIQN[Dap][Sar]VG-NH2; linker N-5 via Suc) | 9.15 | 111 | < 4.57 | 5.95 | – | 123 |
| CC[C@H](C)[C@@H]1NC(=O)[C@H](Cc2ccc(O)cc2)NC(=O)CCC(=O)NC[C@@H](C(=O)N2CCC[C@H]2C(=O)N[C@@H](CCC(C)C)C(=O)NCC(N)=O)NC(=O)[C@H](CC(N)=O)NC(=O)[C@H](CCC(N)=O)NC1=O [Example 22] (YIQN[Dap]P[hLeu]G-NH2; linker N-5 via Suc) | 9.10 | 109 | 6.41 | 6.75 | 106 | – |
| CC[C@H](C)[C@@H]1NC(=O)[C@H](Cc2ccc(O)cc2)NC(=O)CCC(=O)NC[C@@H](C(=O)N(C)CC(=O)N[C@@H](CCC(C)C)C(=O)NCC(N)=O)NC(=O)[C@H](CC(N)=O)NC(=O)[C@H](CCC(N)=O)NC1=O [Example 25] (YIQN[Dap][Sar][hLeu]G-NH2; linker N-5 via Suc) | 9.10 | 103 | < 4.57 | 6.67 | 118 | – |
